Assay results taken from US20030144335A1, “Preventive or remedial agent for allergic disease and medical water-based liquid preparation, eye drop, and nasal drop” (priority 2001, published 2003).

System: experimental allergic conjunctivitis model
Assay: Experimental allergic conjunctivitis model (dye leakage in palpebral conjunctiva of passively sensitized guinea pigs)
Format: in vivo, guinea pig
Conditions: at each concentration (0.01%, 0.1%, 1%); dose relationship confirmed
Description: In the test, Hartley male guinea pigs (each group consisting of 8 guinea pigs) at age 6 weeks were used.
Antiserum made by the following method was used: According to the method of Levine et al (J.Immunol.,106,29-33(1971)), the guinea pigs were sensitized with 4 times-administration of physiological saline 1 ml containing 10 μg of ovalbumin (hereafter called “OA”) and 5 mg of aluminum hydroxide via the peritoneal cavity at intervals of 2 weeks. 1 week after the final sensitization, blood was sampled from the hind leg, and left at room temperature for 30 minutes. The blood was then left at 4° C. for 4-5 hours, and serum was then collected by centrifugation at 1680×9.8 m/s^2 g for 15 minutes. The serum obtained was frozen and stored at −80° C.
20 μl/site of Anti OA guinea pig serum (64 antibody titer in PCA (passive cutaneous anaphylaxis reaction)) was diluted with an equal amount of physiological saline. 20 μl/site of the solution was injected intradermally in binocular palpebral conjunctiva of the guinea pig under ether anesthesia. Thus, passive sensitization was carried out. […]
Then, 8 ml of 0.6 mol/ml of liquid mixture of phosphoric acid and acetone(5 to 13) was added and shaken; thereafter, the mixture was stirred using a homogenizer, and centrifuged at 1680×9.8/s^2 for 15 minutes. The leakage pigment quantity was colorimetered at 620 nm using a spectrophotometer. […]

## CCS(=O)(=O)CCn1c([N+](=O)[O-])cnc1C [tinidazole, 1-(2-ethylsulfonyl)ethyl-2-methyl-5-nitro-1H-imidazole]
  inhibitory effect on dye leakage (allergic conjunctivitis): significant inhibitory effect
